Entries after “also recorded” stand apart in the source; their conditions may differ.
Tested on: patients with advanced and/or treatment-refractory solid tumors
Assay: Safety and tolerability: adverse events
Assay type: in vivo, human
Settings: for Alanine aminotransferase increased (treatment-related AE) / Ammonia increased (treatment-related AE) / Anemia (treatment-related AE) / Aspartate aminotransferase increased (treatment-related AE) / Blood alkaline phosphatase increased (treatment-related AE) / Blood bilirubin increased (treatment-related AE) / Blood creatinine increased (treatment-related AE) / Constipation (treatment-related AE) / Decreased appetite (treatment-related AE) / Diarrhea (treatment-related AE) / Dysgeusia (treatment-related AE) / Dyspepsia (treatment-related AE) / Fatigue (treatment-related AE) / Gastroesophageal reflux disease (treatment-related AE) / Hypomagnesemia (treatment-related AE) / Hyponatremia (treatment-related AE) / Nausea (treatment-related AE) / Neuropathy peripheral (treatment-related AE) / Patients with ≥1 treatment-emergent AE / Patients with ≥1 treatment-related AE / Photophobia (treatment-related AE) / Photopsia (treatment-related AE) / Thrombocytopenia (treatment-related AE) / Vision blurred (treatment-related AE) / Vomiting (treatment-related AE) / Weight decreased (treatment-related AE) / γ-Glutamyltransferase increased (treatment-related AE) / Abdominal distension (treatment-related AE) / Activated partial thromboplastin time prolonged (treatment-related AE): TID-fasted (n = 32)
[1] = across doses and schedules, 120 patients

## O=C(Cc1cccc(OC(F)(F)F)c1)Nc1ccc(CCCCc2nnc(NC(=O)Cc3ccccn3)s2)nn1 [telaglenastat, Telaglenastat]
All grades
  Alanine aminotransferase increased (treatment-related AE): 6 (18.8) n (%)
  Ammonia increased (treatment-related AE): 0 n (%)
  Anemia (treatment-related AE): 0 n (%)
  Aspartate aminotransferase increased (treatment-related AE): 6 (18.8) n (%)
  Blood alkaline phosphatase increased (treatment-related AE): 2 (6.3) n (%)
  Blood bilirubin increased (treatment-related AE): 0 n (%)
  Blood creatinine increased (treatment-related AE): 1 (3.1) n (%)
  Constipation (treatment-related AE): 2 (6.3) n (%)
  Decreased appetite (treatment-related AE): 0 n (%)
  Diarrhea (treatment-related AE): 1 (3.1) n (%)
  Dysgeusia (treatment-related AE): 1 (3.1) n (%)
  Dyspepsia (treatment-related AE): 0 n (%)
  Fatigue (treatment-related AE): 7 (21.9) n (%)
  Gastroesophageal reflux disease (treatment-related AE): 0 n (%)
  Hypomagnesemia (treatment-related AE): 0 n (%)
  Hyponatremia (treatment-related AE): 0 n (%)
  Nausea (treatment-related AE): 2 (6.3) n (%)
  Neuropathy peripheral (treatment-related AE): 1 (3.1) n (%)
  Patients with ≥1 treatment-emergent AE: 30 (93.8) n (%)
  Patients with ≥1 treatment-related AE: 23 (71.9) n (%)
  Photophobia (treatment-related AE): 1 (3.1) n (%)
  Photopsia (treatment-related AE): 1 (3.1) n (%)
  Thrombocytopenia (treatment-related AE): 0 n (%)
  Vision blurred (treatment-related AE): 0 n (%)
  Vomiting (treatment-related AE): 4 (12.5) n (%)
  Weight decreased (treatment-related AE): 0 n (%)
  γ-Glutamyltransferase increased (treatment-related AE): 1 (3.1) n (%)
Grade 3
  Abdominal distension (treatment-related AE): 0 n (%)
  Activated partial thromboplastin time prolonged (treatment-related AE): 0 n (%)
  Alanine aminotransferase increased (treatment-related AE): 5 (15.6) n (%)
  Ammonia increased (treatment-related AE): 0 n (%)
  Anemia (treatment-related AE): 0 n (%)
  Aspartate aminotransferase increased (treatment-related AE): 3 (9.4) n (%)
  Blood alkaline phosphatase increased (treatment-related AE): 1 (3.1) n (%)
  Blood bilirubin increased (treatment-related AE): 0 n (%)
  Blood creatinine increased (treatment-related AE): 1 (3.1) n (%)
  Constipation (treatment-related AE): 0 n (%)
  Decreased appetite (treatment-related AE): 0 n (%)
  Diarrhea (treatment-related AE): 0 n (%)
  Dysgeusia (treatment-related AE): 0 n (%)
  Dyspepsia (treatment-related AE): 0 n (%)
  Fatigue (treatment-related AE): 0 n (%)
  Gastroesophageal reflux disease (treatment-related AE): 0 n (%)
  Hypomagnesemia (treatment-related AE): 0 n (%)
  Hyponatremia (treatment-related AE): 0 n (%)
  Nausea (treatment-related AE): 0 n (%)
  Neuropathy peripheral (treatment-related AE): 0 n (%)
  Patients with ≥1 treatment-emergent AE: 9 (28.1) n (%)
  Patients with ≥1 treatment-related AE: 4 (12.5) n (%)
  Photophobia (treatment-related AE): 0 n (%)
  Photopsia (treatment-related AE): 0 n (%)
  Thrombocytopenia (treatment-related AE): 0 n (%)
  Vision blurred (treatment-related AE): 0 n (%)
  Vomiting (treatment-related AE): 0 n (%)
  Weight decreased (treatment-related AE): 0 n (%)
  γ-Glutamyltransferase increased (treatment-related AE): 0 n (%)
Grade 4
  Abdominal distension (treatment-related AE): 0 n (%)
  Activated partial thromboplastin time prolonged (treatment-related AE): 0 n (%)
  Alanine aminotransferase increased (treatment-related AE): 0 n (%)
  Ammonia increased (treatment-related AE): 0 n (%)
  Anemia (treatment-related AE): 0 n (%)
  Aspartate aminotransferase increased (treatment-related AE): 2 (6.3) n (%)
  Blood alkaline phosphatase increased (treatment-related AE): 0 n (%)
  Blood bilirubin increased (treatment-related AE): 0 n (%)
  Blood creatinine increased (treatment-related AE): 0 n (%)
  Constipation (treatment-related AE): 0 n (%)
  Decreased appetite (treatment-related AE): 0 n (%)
  Diarrhea (treatment-related AE): 0 n (%)
  Dysgeusia (treatment-related AE): 0 n (%)
  Dyspepsia (treatment-related AE): 0 n (%)
  Fatigue (treatment-related AE): 0 n (%)
  Gastroesophageal reflux disease (treatment-related AE): 0 n (%)
  Hypomagnesemia (treatment-related AE): 0 n (%)
  Hyponatremia (treatment-related AE): 0 n (%)
  Nausea (treatment-related AE): 0 n (%)
  Neuropathy peripheral (treatment-related AE): 0 n (%)
  Patients with ≥1 treatment-emergent AE: 3 (9.4) n (%)
  Patients with ≥1 treatment-related AE: 3 (9.4) n (%)
  Photophobia (treatment-related AE): 0 n (%)
  Photopsia (treatment-related AE): 0 n (%)
  Thrombocytopenia (treatment-related AE): 0 n (%)
  Vision blurred (treatment-related AE): 0 n (%)
  Vomiting (treatment-related AE): 0 n (%)
  Weight decreased (treatment-related AE): 0 n (%)
  γ-Glutamyltransferase increased (treatment-related AE): 1 (3.1) n (%)
TID-fasted, 7/32
  Incidence of treatment-related grade 3/4 AEs: 22%
Across doses and schedules, 87/120 patients
  Patients with treatment-related AEs of any grade: 72.5%
[1]
  ALT increased, treatment-related AE of any grade: 17%
  AST increased, treatment-related AE of any grade: 13%
  Fatigue, treatment-related AE of any grade: 23%
  Nausea, treatment-related AE of any grade: 19%
  Photophobia, treatment-related AE of any grade: 11%
All due to progressive disease (PD)
  Patients who died during the study-reporting period: Seven
Dose escalation, BID-fed schedule
  DLTs: No DLTs
Either schedule
  Hy's Law criteria (drug-induced liver injury): no patients on either schedule met criteria for the Hy's Law; also recorded: no cases of drug-induced liver injury according to the Hy's law criteria
Four SAEs: ALT and AST increase (400 mg TID), blood creatinine increase (250 mg TID), grade 2 convulsion (1,000 mg BID)
  Patients with treatment-related SAEs: 3 patients

— publication PMC9401498 (Clinical Cancer Research, 2021)
